The results in this text go back to a melting point compilation (Tetko et al.; mined from patent text by program, amines drawn as free bases though some values may be those of a salt).

The structures appear in SMILES notation. Bounds are passed on as bounds.

A word on the melting point: it is the temperature, or range, at which the solid turns liquid. For `CC(=O)NCCNC(=O)c1[nH]c(C)c(-c2nc3ccc(C(=O)c4ccccc4)cc3[nH]2)c1C`, the melting point was in the range of 272 to 273 °C.

With `O=C(Nc1ccccc1)Nc1cc(Br)nc(Br)c1`, the melting point lay in the range of 237 to 239 °C.

Turning to `CN1C(=O)C(N)C(c2ccccc2)=Nc2ccccc21` (centres undefined), the melting point fell in the range of 178 to 179 °C.

`CC(=O)OCC1(c2ccc(F)cc2)CCC(=O)CC1` returned a melting point of 80 to 84 °C.

`NC(=O)CNC(=O)c1cccc(-c2ccc(Cl)c3cc(Cc4cc(F)cc(Cl)c4)sc23)c1` registered a melting point of 204 to 205 °C.

`CC(=O)OC1CC2(C)C(=O)CCC2C2C(CCCCCCCCCCl)CC3=CC(=O)CCC3C12` (centres undefined) showed a melting point of 113 to 115 °C.

Consider `Cc1ccc(I)cc1Cc1ccc(-c2ccc(F)cc2)s1`, for which the melting point was 109 to 110 °C.

As for `CCOc1cc2cc3c(Nc4cc(OC)c(Cl)cc4C)c(C#N)cnc3cc2cc1OCCN1CCOCC1`, the melting point fell in the range of 201 to 203 °C.

`Cc1cccc(OCC(F)(F)F)c1NC(=O)CCl` returned a melting point of 128 to 129 °C.

In turn, `COc1ccc2c(c1)c(CC1=CC(=O)N=N1)c(C)n2C(=O)c1ccc(Cl)cc1` displayed a melting point of more than 230 °C.

`COc1cccc2ncoc12` came in with a melting point of 28 to 31 °C.

Consider `O=C(Cc1ccc(Cl)cc1)Nc1cc(CC2SC(=O)NC2=O)ccc1O` (centres undefined), for which the melting point lay in the range of 207 to 209 °C.

Consider `CC(C)C1=NC2=NC(SCc3ccccc3)(SCc3ccccc3)NN2C=C1`, for which the melting point lay in the range of 65 to 66 °C.

On to `CCN(CC)C(=O)CCc1nc(-c2ccccc2)nc2ccccc12`, for which the melting point was 103 °C.

`CCNCC1(O)CCN(c2cc3c(cc2F)c(=O)c(C(=O)O)cn3C2CC2)C1` (centres undefined) yielded a melting point of 202 to 207 °C.

Take `O=C(O)c1ccc2[nH]c3c(c2c1)CCCCCC3`: the melting point lay in the range of 240 to 241 °C.

Compound `O=C(O)c1cccc(Oc2ccc(C(F)(F)F)cc2Cl)c1` had a melting point of 116 to 119 °C.

Turning to `O=C(CCl)Nc1c(Cl)cccc1SSc1cccc(Cl)c1NC(=O)CCl`, the melting point fell in the range of 188 to 189 °C.

For the compound `C/C(=C(\C#N)C(N)=S)N1CCCCCCC1`, the melting point was 149 to 150 °C.

As to `Cc1c(CN2C(=O)c3ccccc3C2=O)cccc1C(F)(F)C(F)(F)c1ccccc1`, the melting point lay in the range of 135 to 137 °C.

With `C=C(CC(=O)Nc1cccc(/C=C/c2nc(C3CCCCC3)cs2)c1)C(=O)O`, the melting point is 187 to 189 °C.

For the compound `COc1ccc2cccc(CC#N)c2c1`, the melting point worked out at 83 °C.

With `CCc1nn(Cc2cccnn2)c(C(N)=O)c1NC(=O)c1cc(S(C)(=O)=O)ccc1OCC(C)C`, the melting point lay within 196 to 200 °C.

Compound `COC(=O)C1=C(C(=O)OC)C2(c3ccc(Cl)cc3)CCC1O2` (centres undefined) displayed a melting point of 90 to 91 °C.

Take `CC(C)c1nc2c(c3c1[nH]c1ccccc13)C(=O)C(C)(C)CC2`: the melting point lay in the range of 182 to 184 °C.

`Cc1c(Cl)cc(C(=O)CC(Cl)C(=O)O)cc1Cl` (centres undefined): the melting point was 129 to 132 °C.

Take `CCCCCCCCCCC(C)(C)C(=O)NC1CCCNC(=O)C1` (centres undefined): the melting point lay within 41 to 42 °C.

For `CCCCc1nc2c(N)nc3ccccc3c2n1CC1(O)CCOCC1`, the melting point was in the range of 235 to 236 °C.

On to `CC#CCOc1cc(Oc2c(F)cccc2F)ncn1`, for which the melting point was found to be 79.8 °C.

For `O=C1N(Cc2csc(-c3ccc(C(F)(F)F)cc3)n2)c2ccccc2C12COc1cc3c(cc12)OCO3` (centres undefined), the melting point fell in the range of 151 to 153 °C.

`N[C@@H](Cc1ccccc1)C(=O)NC(=O)N(CCCl)N=O` displayed a melting point of 113 to 115 °C.

`O=C1C=C(c2c[nH]c3ccc(Br)cc23)C(=O)N1` yielded a melting point of 268 °C.

`CC(C)=Cc1ccc(C(C)C(=O)O)cc1` (centres undefined) had a melting point of 53 to 54 °C.

`CCCCCCCCCCCCCCCCCCOc1cc(N(CC(=O)O)CC(=O)O)cc(S(=O)CC(=O)O)c1` (centres undefined) showed a melting point of 138 to 140 °C.

`CCN(CC)CC1CCCCN1CCNC(=O)N1c2ccccc2C(=O)Nc2cccnc21` (centres undefined) showed a melting point of 175 to 176 °C.

In the case of `O=[N+]([O-])c1cccc(OCc2nc3ccccc3s2)c1`, the melting point is 156 to 157 °C.

For `CCC(CC)(CC(=O)Nc1cccc(SCc2ccc3cc(F)ccc3n2)c1)C(=O)O`, the melting point lay in the range of 117 to 120 °C.

Compound `O=C(Cc1cc(F)ccc1F)N1CCNc2ncc(I)cc21` yielded a melting point of 152 to 153 °C.

In turn, `COc1ccc2ncccc2c1N` came in with a melting point of 152 to 154 °C.

In the case of `CC(=O)N1c2ccccc2-n2cc(Cc3cccnc3)c(=O)c3cccc1c32`, the melting point lay within 143 to 144 °C.

Compound `CC(C)CC(C(=O)OCc1ccc([N+](=O)[O-])cc1)N(C(=O)OC(C)(C)C)C1CC1` (centres undefined) gave a melting point of 139 to 143 °C.

Regarding `O=C(c1cccc2cc[nH]c12)N1CCN(c2ccc(F)cc2)CC1`, the melting point was 222 to 224 °C.

In turn, `Nc1c(S)ccc2ccccc12` had a melting point of 36 to 37 °C.

`CC1CNC(CC(c2ccccc2)c2ccccc2)=N1` (centres undefined): the melting point is 55 to 57 °C.

For the compound `CSCc1cn(C)c2ccc(C)cc2c1=O`, the melting point is 142 to 143 °C.

In turn, `COCOc1c(OC)cc(C(=O)C(=O)O)c2cccc(Cc3ccccc3)c12` registered a melting point of 75 to 79 °C.

In turn, `CCCCOc1cc(/C=C/C(=O)O)n(Cc2ccc(C(F)(F)F)cc2)n1` came in with a melting point of 153 to 155 °C.

Consider `COC(=O)C1=NN(c2ccc(F)cc2)C(C)(C(=O)OC)C1` (centres undefined), for which the melting point was 114 to 118 °C.

Turning to `Oc1ncnc2c(F)ccc(F)c12`, the melting point is 257 to 258 °C.

Turning to `Cc1nc(C)c2c(n1)N(Cc1ccc(-c3ccccc3-c3nnnn3C(c3ccccc3)(c3ccccc3)c3ccccc3)cc1)C(=O)CC2`, the melting point lay within 160 to 161 °C.

The compound `CCOc1cc2c(cc1Cc1ccc3c(c1)OCO3)OCO2` registered a melting point of 44 °C.

Consider `Fc1cc(Cl)ccc1-n1nc2c(c1Br)CCCCC2`, for which the melting point fell in the range of 59 to 60 °C.

Take `COc1ccc(Cc2sc3ccccc3c2-c2ccc(-c3ccc(OC(Cc4ccccc4)C(=O)O)cc3)cc2)cc1OC` (centres undefined): the melting point was in the range of 59 to 61 °C.

As for `O=P(O)(O)CCCCCCCCCCCCCCCCCCCCCCC(F)(F)C(F)(F)C(F)(F)C(F)(F)F`, the melting point lay in the range of 106 to 108 °C.

Consider `COCOc1c(OC)cc(/C=C/C(=O)/C=C/c2cc(OC)c(OCOC)c(OC)c2)cc1OC`, for which the melting point was 146 to 148 °C.

`O=S1(=O)c2ccccc2N(c2cc(F)cc(F)c2)c2ccccc21` showed a melting point of 255 to 258 °C.

Turning to `CCOC(=O)C(=CN)C(=O)c1cc(F)c(Cl)c([N+](=O)[O-])c1Cl`, the melting point is 113 to 114 °C.

Consider `N#Cc1cnn2c1N(C(=O)CN1CCN(C(=O)Nc3ccccc3)CC1)CC=C2c1cccc(C(F)(F)F)c1`, for which the melting point is 184 to 187 °C.

For the compound `Cn1nc(-c2cc3c(cc2F)NC(=O)CO3)c(Cl)c1C(F)(F)F`, the melting point came to 242 °C.

On to `O=C(CCc1ccccc1)N[C@H](Cc1ccc(C(F)(F)F)cc1)[C@@H](O)c1ccccc1` (racemic), for which the melting point is 147 to 148 °C.

As to `COc1cccc([C@H]2O[C@H](CC(=O)O)C(=O)N(CC(C)(CO)CO)c3ccc(Cl)cc32)c1OC`, the melting point is 208 to 210 °C.

In turn, `N#CC1=C(C2CCCCC2)Nc2n[nH]cc2C1c1cccc2nonc12` (centres undefined) returned a melting point of 210 °C.

As to `COc1cccc(/C(=C/C=C/C(=O)O)c2cccc(F)c2)c1`, the melting point is 151 to 153 °C.

As for `CC(=O)Cc1cc([C@]2(c3cccc(-c4cccnc4F)c3)N=C(N)N(C)C2=O)cn1CCCF`, the melting point lay within 147 to 150 °C.

`CC(=O)c1ccc(C(=O)N2Cc3cccn3Cc3ccccc32)c(Cl)c1` displayed a melting point of 98 to 100 °C.

`CC(=NOC(=O)Nc1ccccc1)C(C)N(C(=O)CCl)c1c(C)cccc1C` (centres undefined): the melting point lay in the range of 115 to 117 °C.

Compound `Nc1ccccc1NC(=O)c1ccc(CNC(=O)c2[nH]c(-c3ccoc3)cc2-c2ccc(O)cc2)cc1` had a melting point of 70 to 72 °C.

`Cc1oc2cc(C3CC(=O)NC(=O)C3)ccc2c1C` gave a melting point of 252 to 254 °C.

With `CN(CCNc1ccc2nc(NC(=O)c3ccc(C(C)(C)C)cc3)cn2n1)C(=O)OC(C)(C)C`, the melting point lay within 200 to 201 °C.

`N#Cc1nc(N)c(Cl)nc1C#N`: the melting point was 205 to 208 °C.

The compound `O=CCCN1CCc2cc(Br)ccc2C1=O` had a melting point of 93 to 94 °C.

For the compound `CC(=O)NCC(=O)NCC1(S)C2CC3CC(C2)CC1C3` (centres undefined), the melting point is 154 to 157 °C.

The compound `CC(=O)Nc1cccc2c1SC(C)C2` (centres undefined) displayed a melting point of 125 to 127 °C.

Compound `CN(C)CCOC1(O)C=CC2=NC(C(=O)N3CC(CCl)c4c3ccc3ncccc43)=CC2=C1` (centres undefined) displayed a melting point of 209 to 215 °C.

In turn, `CCCc1nc(C)c2c(=O)[nH]c(N)nn12` registered a melting point of 266 °C.

Compound `CC=CN(C=CC)c1ccc2[nH]c3cnc(C(=O)OCC)cc3c2c1` registered a melting point of 235 to 238 °C.

`O=C(c1ccc(O)cc1)c1ccc(Cl)cc1Cl` returned a melting point of 140 °C.

`COc1ccc(C2=NN(C3CCN(C(=O)NC(C)(C)C)CC3)C(=O)CC2)cc1OC` showed a melting point of 76 to 78 °C.

In the case of `NS(=O)(=O)c1ccc(-c2noc(-c3cnn4c(C5CC5)cc(-c5ccc(C(F)(F)F)cc5)nc34)n2)cc1`, the melting point worked out at 313 °C.

`NS(=O)(=O)c1ccc(CCI)cc1` came in with a melting point of 227 °C.

Compound `O=C1CCC(N2Cc3c(CNC(=S)NC4CCCCC4)cccc3C2=O)C(=O)N1` (centres undefined) yielded a melting point of more than 260 °C.

As for `OCCCN1CC=C(c2cn(-c3ccc(F)cc3)c3ccc(C(F)(F)F)cc23)CC1`, the melting point fell in the range of 173 to 175 °C.

On to `COc1ccc(C(=O)CCC(=O)N[C@@H](C)C(=O)O)cc1`, for which the melting point is 100 to 102 °C.

Turning to `O=C(O)CCCc1cccc(CNC(=O)C2Cc3ccccc3N2S(=O)(=O)c2ccc(-c3cccc(C(F)(F)F)c3)cc2)c1` (centres undefined), the melting point came to 76 °C.

`Cc1cc(=O)c(-c2ccc(C#N)cc2)c(C)[nH]1`: the melting point was 192 to 195 °C.

In turn, `CCN(CC)CCNC(=O)c1cc(Cl)c(N)cc1OCCCN1C(=O)c2ccccc2C1=O` showed a melting point of 141 to 143 °C.

Consider `Cc1c(C)c2c(c(C)c1NC(=O)OC(C)(C)C)C(c1ccc(C(C)C)cc1)C(C)(C)O2` (centres undefined), for which the melting point fell in the range of 119 to 120 °C.

In turn, `COC(=O)c1cc(Cl)cc2ccoc12` returned a melting point of 144 to 145 °C.

As to `Oc1ccc(-c2nc(Br)c[nH]2)cc1Cl`, the melting point lay in the range of 225 to 227 °C.
